# Test results: patent US20260357306A1, “ONE-POT FERMENTATIVE PRODUCTION OF GLYCOLATE OR OTHER HYDROXYCARBOXYLIC ACIDS” (PHYCUS BIOTECHNOLOGIES INC., priority 2023, published 2026)
# How the values were obtained:
# Type in all cases: biochemical
# [1] = target: T1, Gluconobacter oxydans alcohol dehydrogenase goxADH (Gox0313), SEQ ID NO: 206 (Gluconobacter oxydans, UniProt Q5FU50); test: Alcohol dehydrogenase (EG oxidation) Michaelis-Menten kinetics, goxADH; conditions: role: substrate; relative to goxADH
# T1 sequence (Q5FU50 1-343): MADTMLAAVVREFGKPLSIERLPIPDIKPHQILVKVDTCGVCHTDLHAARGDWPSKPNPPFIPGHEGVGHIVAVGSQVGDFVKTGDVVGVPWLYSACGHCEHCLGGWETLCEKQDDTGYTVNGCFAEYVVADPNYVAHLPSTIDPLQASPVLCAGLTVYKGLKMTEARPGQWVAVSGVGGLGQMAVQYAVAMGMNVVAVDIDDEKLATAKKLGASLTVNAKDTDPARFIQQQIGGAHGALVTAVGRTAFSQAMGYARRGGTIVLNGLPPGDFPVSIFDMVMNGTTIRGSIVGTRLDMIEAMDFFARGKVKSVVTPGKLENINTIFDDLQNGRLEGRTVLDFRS
# Source text: (§1) Enzyme expression and purification: The enzymes of interest were genetically engineered in the E. coli BL21 (DE3) strain on a high copy plasmid under control of the T7 promoter. The enzymes were tagged with a hexahistidine (His-tag) sequence to facilitate for purification. Post-expression, the His-tagged enzymes were selectively bound to a nickel-charged immobilized metal affinity chromatography (IMAC) resin, exploiting the high affinity between histidine residues and nickel ions. Upon washing away non-specifically bound proteins, the His-tagged enzymes were eluted with an imidazole-containing buffer and subsequently used for enzymatic assays.
# (§2) Enzyme assays: Standard enzyme characterization protocols were performed to determine the activities of the enzymes. Dehydrogenase activity against the substrates was determined using a continuous assay following the increase in absorbance at 340 nm ε340 (NADH)=6.22 mM^−1. cm^−1, and ε340 (NADPH)=6.2 mM^−1·cm^−1]. […]
# (§3) The candidate alcohol dehydrogenase enzymes were next characterized for their enzymatic activity. […] Reactions were initiated by the addition of the purified enzyme and enzymatic activity was measured by monitoring the formation of the product (glycolaldehyde) over time as described in Example 8.1. […]
# [2] = target: Mycobacterium marinum alcohol dehydrogenase mmaADH, SEQ ID NO: 215 (Mycobacterium marinum, UniProt B2HH60); test: Alcohol dehydrogenase (EG oxidation) Michaelis-Menten kinetics, mmaADH; conditions: role: substrate; relative to goxADH
# Sequence of Mycobacterium marinum alcohol dehydrogenase mmaADH, SEQ ID NO: 215 (B2HH60 entry or part of it): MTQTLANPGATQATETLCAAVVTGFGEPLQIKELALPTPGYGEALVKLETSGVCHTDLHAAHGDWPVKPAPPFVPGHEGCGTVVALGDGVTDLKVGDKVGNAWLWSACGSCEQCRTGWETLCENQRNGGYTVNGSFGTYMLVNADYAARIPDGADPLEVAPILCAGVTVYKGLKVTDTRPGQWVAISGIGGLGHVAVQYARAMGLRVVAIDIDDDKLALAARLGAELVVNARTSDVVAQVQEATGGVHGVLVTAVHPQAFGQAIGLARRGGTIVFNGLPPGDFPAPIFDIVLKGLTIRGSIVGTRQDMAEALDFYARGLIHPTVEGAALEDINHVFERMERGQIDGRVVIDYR
# Source text: as §1, §2, §3
# [3] = target: Moraxella sp. (strain TAE123) alcohol dehydrogenase mtaADH, SEQ ID NO: 209 (Moraxella sp. TAE123, UniProt Q8GIX7); test: Alcohol dehydrogenase (EG oxidation) Michaelis-Menten kinetics, mtaADH; conditions: role: substrate; relative to goxADH
# Sequence of Moraxella sp. (strain TAE123) alcohol dehydrogenase mtaADH, SEQ ID NO: 209 (Q8GIX7 whole entry): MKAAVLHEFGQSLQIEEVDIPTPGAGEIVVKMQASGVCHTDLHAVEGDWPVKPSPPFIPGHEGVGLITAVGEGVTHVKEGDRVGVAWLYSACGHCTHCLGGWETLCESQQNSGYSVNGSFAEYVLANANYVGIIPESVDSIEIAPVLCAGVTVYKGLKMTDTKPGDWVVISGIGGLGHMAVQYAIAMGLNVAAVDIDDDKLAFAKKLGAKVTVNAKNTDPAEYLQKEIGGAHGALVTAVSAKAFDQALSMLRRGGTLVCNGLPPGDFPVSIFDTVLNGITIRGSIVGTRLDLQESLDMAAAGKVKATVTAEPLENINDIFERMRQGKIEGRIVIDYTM
# Source text: as §1, §2, §3
# [4] = target: T2, Gluconobacter morbifer alcohol dehydrogenase gmoADH, SEQ ID NO: 207 (Gluconobacter morbifer, UniProt G6XLF0); test: Alcohol dehydrogenase (EG oxidation) Michaelis-Menten kinetics, gmoADH; conditions: role: substrate
# T2 sequence (G6XLF0 1-343): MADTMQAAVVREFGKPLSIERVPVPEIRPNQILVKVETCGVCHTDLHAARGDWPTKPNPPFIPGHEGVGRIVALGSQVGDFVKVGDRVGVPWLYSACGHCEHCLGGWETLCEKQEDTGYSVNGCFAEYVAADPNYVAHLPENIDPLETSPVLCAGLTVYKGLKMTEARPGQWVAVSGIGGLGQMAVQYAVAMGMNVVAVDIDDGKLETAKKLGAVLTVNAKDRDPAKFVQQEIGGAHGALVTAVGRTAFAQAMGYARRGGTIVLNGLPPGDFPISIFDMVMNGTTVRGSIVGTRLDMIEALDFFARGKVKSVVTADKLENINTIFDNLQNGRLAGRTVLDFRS
# Source text: as §1, §2, §3
# [5] = target: T3, Gluconobacter diazotrophicus alcohol dehydrogenase gdiADH, SEQ ID NO: 208 (Gluconacetobacter diazotrophicus, UniProt A9HNA5); test: Alcohol dehydrogenase (EG oxidation) Michaelis-Menten kinetics, gdiADH; conditions: role: substrate
# T3 sequence (A9HNA5 1-354): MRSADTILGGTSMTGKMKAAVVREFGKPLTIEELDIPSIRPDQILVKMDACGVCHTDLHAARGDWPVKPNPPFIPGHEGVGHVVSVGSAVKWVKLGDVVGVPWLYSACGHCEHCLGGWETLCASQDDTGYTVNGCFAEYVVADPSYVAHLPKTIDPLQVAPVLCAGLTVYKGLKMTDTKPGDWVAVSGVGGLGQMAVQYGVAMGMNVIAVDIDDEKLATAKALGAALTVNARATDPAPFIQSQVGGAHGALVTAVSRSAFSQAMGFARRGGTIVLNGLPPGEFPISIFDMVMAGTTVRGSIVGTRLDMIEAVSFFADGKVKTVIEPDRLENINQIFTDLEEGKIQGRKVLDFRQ
# Source text: as §1, §2, §3
compound,measurement,setting,value
OCCO [ethylene glycol],Relative Vmax,[1],1.0
same,Relative Vmax,[2],1.1
same,Relative Vmax,[3],1.6
same,Relative Vmax,[4]; relative to goxADH,2.5
same,"maximum catalytic rate (EG turnover rate), fold higher than goxADH",[4]; versus goxADH,2.5 fold
same,Relative Vmax,[5]; relative to goxADH,3.8
same,"maximum catalytic rate (EG turnover rate), fold higher than goxADH",[5]; versus goxADH,3.8 fold
